Marks after values point to notes of the source that are not given here.
How the values were obtained:
Type in all cases: cell-based, human
elastin mRNA [1] = assay: Positive controls: stimulation of elastin mRNA synthesis by quantitative RT-PCR; conditions: 1 ng/ml, fold (×)
Procedure: (§1) The active principles were tested at 1% (v/v) on fibroblasts of normal human skin (originating from the foreskin of the infant or originating from the adult). The culture was carried out, e.g. in a monolayer on 24-well culture plates, in a defined medium without serum (Fibroblast Basal Medium). The cells were sown, e.g. at 40,000 per cm^2. At the confluence, the cells are placed in contact with the actives advantageously for 24 hours. In parallel, a non-treated control (medium alone) and three positive controls (TGF-β at 1 ng/ml, IL-1α at […] and Phytokine® (Coletica, Lyons, France) at 2% (v/v)) are advantageously carried out, e.g. on the same culture plate.
(§2) The TGF-β at 1 ng/ml and the IL-1α at 50 pg/ml were tested beforehand and the stimulation of the synthesis of elastin mRNA induced by these two cytokines at these concentrations was verified by an analysis of the mRNAs, e.g. by quantitative RT-PCR (×10 for TGF-β and x6 for IL-1 alpha). After the time of placing the actives in contact with the cells, e.g. 24 hours, the media are removed and the cells are preserved e.g. by dry freezing at −80° C. after a rinsing in phosphate buffer pH 7.4. The total RNAs are extracted e.g. with the aid of an extraction kit of 96 wells on silica columns and were determined on a 96-well spectrophotometer at 260 nm (purity indicator: protein determination at 280 nm). […]

LOX mRNA [2] = assay: Screening of active principles by qualitative RT-PCR: LOX mRNA expression in fibroblasts; conditions: actives at 1% (v/v), 24 hours, fibroblasts of the abdomen of mature age adult (donor), mRNA vs actin and negative control
Procedure: as §1
as §2, with “nm). The RNAs are diluted e.g. to 5 ng/μl. The qualitative RT-PCR in 1 step is carried out e.g. on 50 ng of initial RNA on a 96-well plate, on the genes of actin, elastin, of LOX and of LOXL. The specific primers of each gene are used e.g. at 0.5 μM:” for “nm).”
(§3) The amplification parameters were advantageously the following 48° C., 30 min; 94° C., 2 min; (94° C., 30 seconds; 60° C., 30 seconds; 68° C., 30 seconds) 28 cycles for actin, 30 cycles for LOXL, 32 cycles for LOX, or 34 cycles for elastin; 68° C., 10 min; 14° C., infinity. […] The photographs of the gels were analyzed by image analysis and quantification of the intensity of the bands (Phoretix1D, France). […]

elastin (Eln) mRNA = assay: Screening of active principles by qualitative RT-PCR: elastin mRNA expression in fibroblasts; conditions: actives at 1% (v/v), 24 hours, fibroblasts of the abdomen of mature age adult (donor), mRNA vs actin and negative control
Procedure: as §1
as §2, with “nm). The RNAs are diluted e.g. to 5 ng/μl. The qualitative RT-PCR in 1 step is carried out e.g. on 50 ng of initial RNA on a 96-well plate, on the genes of actin, elastin, of LOX and of LOXL. The specific primers of each gene are used e.g. at 0.5 μM:” for “nm).”
as §3

LOX mRNA [3] = assay: Real time RT-PCR effectiveness study: LOX mRNA in adult fibroblasts; conditions: 24 hours, adult abdomen fibroblasts (donor)
LOXL mRNA [4] = assay: Screening of active principles by qualitative RT-PCR: LOXL mRNA expression in fibroblasts; conditions: actives at 1% (v/v), 24 hours, fibroblasts of the abdomen of mature age adult (donor), mRNA vs actin and negative control
Procedure: as §1
as §2, with “nm). The RNAs are diluted e.g. to 5 ng/μl. The qualitative RT-PCR in 1 step is carried out e.g. on 50 ng of initial RNA on a 96-well plate, on the genes of actin, elastin, of LOX and of LOXL. The specific primers of each gene are used e.g. at 0.5 μM:” for “nm).”
as §3

elastin mRNA [5] = assay: Real time RT-PCR effectiveness study: elastin mRNA in adult fibroblasts; conditions: 24 hours, adult abdomen fibroblasts (donor)
Procedure: (§4) […] The culture was carried out e.g. in monolayer in 24-well plates, in a defined medium without serum (Fibroblast Basal Medium). The cells are sown e.g. at 40,000 per cm^2. After the time of placing the actives in contact with the cells (24 hours), the media were removed and the cells were preserved e.g. by dry freezing at −80° C. after a rinsing with phosphate buffer at pH 7.4. At the end of experimentation, the content of mRNA of elastin, of LOXL and of actin is evaluated by an mRNA analysis technique, e.g. by real time RT-PCR. For this, the couples of primers enabling the amplification of specific fragments of these genes are those described above (Example 10).
(§5) After extraction e.g. with the aid of an extraction kit in 96-wells on silica columns and determination on a 96-well spectrophotometer at 260 nm, the RNAs are diluted e.g. to 5 ng/μl. The RT-PCR reactions ([…]) were carried out by quantitative real time RT-PCR with the aid of the “Opticon” system (MJ Research). Advantageously, the reaction mixture (50 μl) introduced into the wells was the following, for each sample: • 10 μl of RNA at a concentration of 5 ng/μl, • The specific primers of the various labels sought after, • Reaction mixture (Qiagen−25 μl 2×QuantiTect SYBR Green RT-PCR master mix containing 5 mM MgCl2+0.5 μl QuantITect RT mix), the label SYBR Green I inserting in the DNA double strands during the elongation step. The RT-PCR Conditions were Advantageously the Following: Reverse Transcription: 30 minutes at 50° C., then 15 minutes at 95° C., PCR reactions: [15 seconds at 94° C., 30 seconds at 60° C. and 30 seconds at 72° C.], 50 cycles.
(§6) The absence of contamination and the purity of the amplified products were verified e.g. via the fusion curves of the amplified PCR products. The products presenting a double peak or an abnormal fusion temperature were eliminated.
(§7) The incorporation of fluorescence in the amplified DNA was evaluated continuously during the PCR cycles. This system enabled obtaining curves of fluorescence measurement as a function of the number of PCR cycles and thus enabled evaluating a relative amount of amplified DNA.
(§8) In order to take account of the cell population present, all the results were compared to the <> signal, which was used as housekeeping gene. According to the experimentation, the threshold of measurement of the C(T) (=Cycle Threshold) was fixed for T between 0.05 and 0.01, and then an arbitrary measurement unit is calculated for each gene according to the formula:
(§9) Sgene<=10^7×(1/2)^C(T)gene<>
(§10) C (T)gene <> signifying the number of cycles necessary to attain the cycle threshold of 0.01-0.05 of the gene <>.
(§11) The values of the genes of interest were compared to the <> signal by calculation of the ratio: […]

LOXL mRNA [6] = assay: Real time RT-PCR effectiveness study: LOXL mRNA in adult fibroblasts; conditions: 24 hours, adult abdomen fibroblasts (donor)
Procedure: as §4, §5, §6, §7, §8, §9, §10, §11

For TGF-β, the “stimulation of the synthesis of elastin mRNA” value (elastin mRNA [1]) was 10.

In the case of `CCCC(=O)OC` [methyl butyrate], the “LOX Control multiplied by:” value (LOX mRNA [2]) is reported as 5.08, the “Eln Control multiplied by:” value (elastin (Eln) mRNA) is reported as 1.43 and the “LOX Control multiplied by:” value (LOX mRNA [3]; active at 0.01%) is reported as 1.04. The “LOX Control multiplied by:” value (LOX mRNA [3]; active at 0.1%) was 1.76*, the “LOX Control multiplied by:” value (LOX mRNA [3]; active at 1%) was 2.17* and the “LOX Control multiplied by:” value (LOX mRNA [3]; active at 5%) was 0.91. The “LOXL Control multiplied by:” value (LOXL mRNA [4]) was 3.24, the “El Control multiplied by:” value (elastin mRNA [5]; active at 0.01%) was 0.92 and the “El Control multiplied by:” value (elastin mRNA [5]; active at 0.1%) was 0.96. For the same compound, the “El Control multiplied by:” value (elastin mRNA [5]; active at 1%) was 1.25, the “El Control multiplied by:” value (elastin mRNA [5]; active at 5%) was 1.70* and the “LOXL Control multiplied by:” value (LOXL mRNA [6]; active at 0.01%) was 0.89. For the same compound, the “LOXL Control multiplied by:” value (LOXL mRNA [6]; active at 0.1%) was 1.56, the “LOXL Control multiplied by:” value (LOXL mRNA [6]; active at 1%) was 2.10* and the “LOXL Control multiplied by:” value (LOXL mRNA [6]; active at 5%) was 0.91.

For ethyl decadienoate, the “LOX Control multiplied by:” value (LOX mRNA [2]) was 3.64, the “Eln Control multiplied by:” value (elastin (Eln) mRNA) was 2.04 and the “LOXL Control multiplied by:” value (LOXL mRNA [4]) was 2.32.

With ethyl hexenoate the “LOX Control multiplied by:” value (LOX mRNA [2]) was 3.09, the “Eln Control multiplied by:” value (elastin (Eln) mRNA) was 1.5 and the “LOXL Control multiplied by:” value (LOXL mRNA [4]) was 2.33.

Reference: patent publication US20100040710A1, “Stimulation of the synthesis and of the activity of an isoform of lysyl oxidase-like LOXL for stimulating the formation of elastic fibers” (BASF Beauty Care Solutions France SAS, priority 2003, published 2010)
